Earlier results on one compound are cited in US20210161808A1, “Nasal Drug Delivery System of Brivaracetam or Salt Thereof” (Zenvision Pharma LLP, priority 2018, published 2021).

Read-outs that look alike come from different tables or passages of the source.

The target of series [1] is synaptic vesicle protein 2A (SV2A) (Homo sapiens, UniProt Q7L0J3). The settings on record: in the brain.
Chain of synaptic vesicle protein 2A (SV2A) (Q7L0J3 whole entry): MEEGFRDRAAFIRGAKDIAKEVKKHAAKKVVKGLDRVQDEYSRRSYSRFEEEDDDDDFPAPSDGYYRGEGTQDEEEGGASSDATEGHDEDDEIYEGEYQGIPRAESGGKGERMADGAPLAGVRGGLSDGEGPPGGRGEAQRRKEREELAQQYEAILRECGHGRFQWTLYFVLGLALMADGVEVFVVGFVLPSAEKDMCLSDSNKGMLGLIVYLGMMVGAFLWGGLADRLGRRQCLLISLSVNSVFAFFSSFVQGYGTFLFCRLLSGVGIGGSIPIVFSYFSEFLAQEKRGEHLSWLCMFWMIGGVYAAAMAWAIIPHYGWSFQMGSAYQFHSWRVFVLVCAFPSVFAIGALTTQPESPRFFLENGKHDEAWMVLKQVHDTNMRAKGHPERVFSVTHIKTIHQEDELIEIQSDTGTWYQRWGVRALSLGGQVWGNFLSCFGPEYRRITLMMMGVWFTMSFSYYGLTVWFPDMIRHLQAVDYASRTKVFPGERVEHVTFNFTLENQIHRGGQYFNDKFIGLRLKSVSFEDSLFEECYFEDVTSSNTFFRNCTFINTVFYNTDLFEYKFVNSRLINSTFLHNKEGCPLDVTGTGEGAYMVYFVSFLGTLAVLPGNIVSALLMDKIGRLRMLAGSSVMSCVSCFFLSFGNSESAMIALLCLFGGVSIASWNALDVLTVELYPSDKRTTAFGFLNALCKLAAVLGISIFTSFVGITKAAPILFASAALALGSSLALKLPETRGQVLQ

As to `CCC[C@@H]1CC(=O)N([C@@H](CC)C(N)=O)C1` [Brivaracetam, (2S)-2-[(4R)-2-oxo-4-propyltetrahydro-1H-pyrrol-1-yl] butanamide], the “affinity for synaptic vesicle protein 2A (SV2A)” value in series [1] is “high and selective affinity”. The solubility entry was “freely soluble” (in acetone); “freely soluble” (in acetonitrile); “very soluble” (in buffer (pH 1.2, 4.5, and 7.4)); “very soluble” (in ethanol); “very soluble” (in glacial acetic acid); “very soluble” (in methanol). Moreover, the solubility entry is given as “very slightly soluble” (in n-hexane), “soluble” (in toluene) and “very soluble” (in water).
